Entries after “also recorded” stand apart in the source; their conditions may differ.
Assays:
[1] = format: physicochemical
From the text: Although m-Tyr is an efficient allelopathic agent, its direct application for agriculture use is limited due to its instability in soil and aqueous environment [Movellan, J. et al. Synthesis and evaluation as biodegradable herbicides of halogenated analogs of L-meta-tyrosine. Environ. Sci. Pollut. Res. 21, 4861-4870 (2014)].

[2] = test system: Synechocystis PCC 6803; experiment: Growth inhibition / bleaching of cyanobacteria culture (absorbance OD=730, colonies on agar); format: cell-based; details: for effect on growth / killing of the cyanobacteria: water samples, OD=730
Method: FIGS. 3A-B depict the inhibition of cyanobacteria by the phenylalanine analogue of some embodiments of the invention (“F”). FIG. 3A—a graph depicting the inhibition of growth of cyanobacteria Synechocystis PCC 6803 by increasing concentrations of the phenylalanine analogue of some embodiments of the invention. FIG. 3B—raw data of the results shown in FIG. 3A as detected after 150 hours.
(§1) FIGS. 5A-E depict the effect of m-Tyr on killing cyanobacteria Microcystis aeruginosa (FIGS. 5A-B) and Synechocystis PCC 6803 (FIGS. 5C-E) from water samples. FIG. 5A is a graph depicting the effects of m-Tyr on lake Kinneret samples containing the highly toxic cyanobacteria, Microcystis aeruginosa. The tests were performed with samples collected from lake Kinneret, that are contaminated by its native toxic cyanobacteria Microcystis aeruginosa, in the absence (0) or presence of various m-Tyr concentrations (1-20 μM) as indicated. […] The growth rate was determined by the culture absorbance at OD=730. FIG. 5B—raw data of the water samples used in the experiment shown in FIG. 5A, in the presence of the indicated concentrations of m-Tyr. FIG. 5C—a graph depicting the effects of m-Tyr on the cyanobacteria, Synechocystis PCC 6803. The tests were performed with samples of Synechocystis PCC 6803, in the absence (0) or presence of various m-Tyr concentrations (1-1000 μM) as indicated. […] The growth rate was determined by the culture absorbance at OD=730. FIG. 5D—raw data of the water samples used in the experiment shown in FIG. 5C, in the presence of the indicated concentrations of m-Tyr. FIG. 5E—The cell mortality of the cyanobacteria Synechocystis PCC 6803 was evaluated by the numbers of colonies appearing on Agar plates.

[3] = test system: Arabidopsis thaliana (var. Columbia); experiment: Arabidopsis seed-germination and seedlings establishment on MS medium with Phe-analogues; format: in vivo; details: for appearance of treated seedlings (cotyledons, leaves): seedlings on MS medium with analogue; for effect on seed-germination: seeds sown on MS medium with 0-80 μM analogue
From the text: FIGS. 2A-D are images depicting the effects of m-Tyr and several other phenylalanine (Phe)-analogs, modified in the meta position of the R-group, on Arabidopsis thaliana (var. Columbia) seed-germination and seedlings establishment. FIG. 2A—m-Tyr; FIG. 2B—Phe-analog “CH3”; FIG. 2C—Phe-analog “F”; FIG. 2D—Phe-analog “CF3”.
The germination of Arabidopsis thaliana plants is inhibited by the Phe-analogues of some embodiments of the invention—The efficiency of the developed compounds modified at the ‘meta’ position of the phenyl ring (FIG. 1) were analysed on Arabidopsis thaliana (var. Columbia). Following […] for 5 days at 4° C., Arabidopsis seeds were sown on Murashige-Skoog medium (MS) supplemented with increased concentrations (0-80 μM) of different Phe-analogues (in which “Y” was either “CH3”, “F” or “CF3”; see, FIG. 1). […] It should be noted that many more phe-analogues can be easily synthesized chemically based on the present teachings.

[4] = test system: A. thaliana; details: absence of Formula A, I or II compound; based on TAIR database; cited from earlier work
[5] = test system: A. thaliana; experiment: Combined treatment of Phe-analogues and glyphosate, A. thaliana root growth / seed-germination; format: in vivo, Arabidopsis thaliana
Method: FIG. 9 is an image depicting the effects of Phe-analogs, glyphosate and combination thereof on Arabidopsis thaliana (var. Columbia) seed-germination and seedlings establishment. “ZYX1”=m-Tyr (3′ OH phenylalanine); “ZYX2”=3′ fluoro phenylalanine; “RoundUp”=Glyphosate; “uM”=μicromolar.
For example, when inhibition of weed growth (e.g., A. thaliana) is achieved using an amount of 100 μM of glyphosate (based on TAIR database) when used in the absence of the effective amount of the compound depicted by Formula A, I or II, the concentration of glyphosate required for achieving the same growth inhibition of the weed in the presence of the effective amount of the compound depicted by Formula A, I or II is 10 μM of glyphosate, i.e., a reduction of about 90% in the concentration of glyphosate (e.g., using the ZYX1 compound as shown in FIG. 9).
Compared to herbicides (e.g., glyphosate) applied alone, the performance of herbicide mixtures can be either synergistic, or additive. Additivity is the combined action, which is equal to the total response predicted by taking into account the response of each herbicide applied alone. Synergism is the combined action of two herbicides where the observed response to their joint application is greater than the response predicted by Colby method [S. R. COLBY. Calculating Synergistic and Antagonistic Responses of Herbicide Combinations. […]

[6] = test system: glyphosate resistant Lolium rigidum Gaudin; experiment: Combined treatment on glyphosate resistant weed, seed-germination and seedlings establishment; format: in vivo
From the text: FIG. 10 is an image depicting the effects of Phe-analogs, on glyphosate resistant Lolium rigidum Gaudin (weed) seed-germination and seedlings establishment. ZYX1=m-Tyr; “RoundUp”=Glyphosate; “uM”=μicromolar.
In recent years, Lolium rigidum Gaudin (annual ryegrass) resistance to a number of herbicides has started to spread worldwide.

[7] = test system: E. coli; experiment: Antibacterial assay, bacterial growth by optical density (OD=600 nm); format: cell-based, Escherichia coli; details: 0-1000 μM
Method: (§2) FIGS. 6A-B depict the effects of m-Tyr on the growth rates of model gram-positive and gram-negative bacteria. Bacterial growth was determined using optical density data (OD=600 nm) of E. coli and B. subtilis cultures at different time points and at different m-Tyr concentrations (0-1000 μM, the color index for m-Tyr concentration used is in the right side of each panel). FIG. 6A—E. coli; FIG. 6B—Bacillus subtilis; Note that cell growth of E. coli and Bacillus subtilis was not affected by m-Tyr, even when used at high concentrations of 1000 micromolar.

[8] = test system: Bacillus subtilis; experiment: as above; format: cell-based; details: 0-1000 μM
Method: as §2

[9] = test system: Microcystis aeruginosa; experiment: Lake Kinneret water samples containing toxic cyanobacteria, bleaching and growth (OD=730); format: cell-based
Method: as §1, with “aeruginosa.” for “aeruginosa. The tests were performed with samples collected from lake Kinneret, that are contaminated by its native toxic cyanobacteria Microcystis aeruginosa, in the absence (0) or presence of various m-Tyr concentrations (1-20 μM) as indicated.”

[10] = test system: Arabidopsis thaliana (var. Columbia); details: Bertin et al. 2007; cited from earlier work
[11] = Movellan et al. 2014; cited from earlier work
[12] = test system: marine bacteria; experiment: Effect on marine bacteria; format: cell-based
From the text: (§3) Thus, m-Tyr and its related Phe-analogues represent the first selective agents against cyanoblooming, a serious threat to both marine ecology and global economy.

[13] = test system: algae (chlamydomonas); experiment: Inhibition of algae; format: cell-based; details: even in the millimolar range
[14] = test system: algae (Chlorella); experiment: Effect on algae; format: cell-based
From the text: as §3

[15] = test system: cyanobacteria; experiment: Viability experiments / toxicity to cyanobacteria; format: cell-based
From the text: as §3

[16] = test system: yeast; experiment: Sensitivity of yeast cultures; format: cell-based; details: even at concentrations as high as 15 mM; data not shown

N[C@@H](Cc1cccc(F)c1)C(=O)O [F, 3′ fluoro phenylalanine]
stability compared with the meta tyrosine molecule [1]: more stable | low concentration at which inhibition of growth rate is evident ([2]; culture absorbance at OD=730): 6.25 µM | bleaching of the cyanobacteria culture ([2]; increasing concentrations, 0 to 50 μM, FIG. 3B after 150 hours): bleaching of the culture | effect on growth / killing of the cyanobacteria [2]: effective; also recorded: very strong effect | appearance of treated seedlings (cotyledons, leaves) [3]: white cotyledons and yellowish leaves | effect on seed-germination [3]: strongly affected

O=C(O)CNCP(=O)(O)O [glyphosate]
amount of glyphosate achieving inhibition of weed growth, used alone [4]: 100 µM | concentration of glyphosate required for the same growth inhibition in combination ([5]; in the presence of the effective amount of the compound (ZYX1, FIG. 9)): 10 µM | response of glyphosate resistant Lolium, applied separately ([6]; FIG. 10): resistance | elevated glyphosate concentration to which the Lolium variety is resistant ([6]; local Israeli variety of Lolium): 60 folds of the recommended concentration

N[C@@H](Cc1cccc(O)c1)C(=O)O [m-Tyr, 3-hydroxyphenylalanine]
effect on cell growth [7]: did not affect cell growth; also recorded: no (or very little) effect; also recorded: not affected | effect on cell growth [8]: did not affect cell growth; also recorded: no (or very little) effect; also recorded: not affected | effect on growth / killing of the cyanobacteria ([9]; OD=730): very strong effect | effect on growth / killing of the cyanobacteria ([9]; OD=730, listed as meta tyrosine): effective | bleaching of the cyanobacteria culture ([9]; increasing concentrations (printed 0 mM to 10 mM)): bleaching of the culture | phytotoxic activity (inhibition of germination of angiosperms, root growth) [10]: promising phytotoxic activity | stability in soil and aqueous environment [11]: instability | reduction in the concentration of glyphosate ([5]; combination of ZYX1 with glyphosate, FIG. 9): about 90% | effect on marine bacteria [12]: no obvious effects | inhibition of algae [13]: no inhibition effects | effect on algae [14]: no obvious effects | effect on / toxicity to cyanobacteria ([15]; very low μM range): highly susceptible; also recorded: strongly affecting; also recorded: toxic | concentration as low as which addition to the growth media induces cell death ([15]; viability experiments): 0.5 µM | sensitivity of yeast cultures [16]: not sensitive | effect on growth / killing of the cyanobacteria ([2]; listed as meta tyrosine): effective | appearance of treated seedlings (cotyledons, leaves) [3]: white cotyledons and yellowish leaves | chloroplast morphology, microscopic analysis ([3]; seedlings treated with 10 μM, data not shown): altered chloroplast morphologies and less grana lamella | effect on seed-germination [3]: strongly affected

Source: patent US20240081329A1, “NON-PROTEIN PHENYLALANINE ANALOGUES FOR INHIBITING CYANOBACTERIA AND PLANT GROWTH” (YISSUM RESEARCH DEVELOPMENT COMPANY OF THE HEBREW …, priority 2016, published 2024)
